US20220193084A1, “INHIBITORS OF EZH2 AND METHODS OF USE THEREOF” (Epizyme, Inc., priority 2015, published 2022)

What was measured:
[1] = human, in vivo
Experimental: (§1) Table 10 describes a Phase 1 clinical trial design (sponsor protocol no.: E7438-G000-001, ClinicalTrials.gov identifier: NCT01897571). The study population included subjects with relapsed or refractory solid tumors or B-cell lymphoma. Subjects received a 3+3 dose escalation in expansion cohorts receiving 800 mg BID and 1600 mg BID, respectively, or a cohort for ascertaining the effect of food on dosing at 400 mg BID. The primary endpoint was a determination of recommended phase II dose (RP2D)/maximum tolerated dose (MTD). Secondary endpoints included safety, pharmacokinetics (PK), pharmacodynamics (PD) and tumor response, assessed every 8 wks.

[2] = test system: relapsed or refractory solid tumors or B-cell lymphoma; assay: Phase 1 clinical trial (NCT01897571): tumor response; type: in vivo, human
Experimental: as §1

relapsed refractory NHL = assay: Phase 2 NHL trial: best response by molecular variant; type: in vivo, human
Experimental: Archive and cell-free tumor DNA collected from relapsed refractory NHL patients phase I and II trials, were tested in the NGS panel as described in Examples 1 and 2. The content of the panel included molecular variants occurring in NHL at ≥5% frequency. (Tables 15 and 17-19, FIGS. 19A-22C). […] Through correction of the background error by molecular bar coding the NHL specific plasma select panel was able to accurately detect mutations down to 0.1% allelic frequency (FIG. 13A and FIG. 13B). Translocations of ALK were detected in a cell-free DNA validation test set with samples from the phase I patients at a tumor purity of as low as 0.1% (FIG. 14). Sequencing of phase 1 NHL patients utilizing the 62 gene NHL NGS panel was completed for 10 archive tumor samples and 15 ctDNA samples (Table 15, FIG. 19A and FIG. 19B). In addition, microsatellite instability was monitored through the analysis of 5 distinct markers (BAT-25, BAT-26, MONO-27, NR-21 and NR-24), leading to one patient in the phase I trial being identified as microsatellite unstable based on the five tested markers (Table 15 and FIG. 19A and FIG. 19B, columns A16 and C16). Sequencing and an initial analysis of samples from patients in a phase 2 trial was completed with 58 archive tumor and 72 ctDNA baseline patient samples, wherein 48 of the archive tumor patients and 68 of the ctDNA patients were sequenced with reported response data.

Oral bioavailability = details: in vivo
[3] = phase 2, archive tumor, 6 patients with MYD88 (273P) mutations
[4] = phase 2, archive tumor, 9 patients with EZH2 mutations
[5] = phase 2, archive tumor, 13 patients with STAT6 mutations
[6] = phase 2, ctDNA variant allele frequencies of 0.1%, 6 patients with MYD88 (273P) mutations
[7] = phase 2, ctDNA variant allele frequencies of 0.1%, 11 patients with EZH2 mutations
[8] = phase 2, ctDNA variant allele frequencies of 0.1%, 14 patients with STAT6 mutations
[9] = phase 2, ctDNA variant allele frequencies of 0.1%, 18 patients with MYC mutations
[10] = phase 2, ctDNA variant allele frequencies of 1%, 5 patients with MYD88 (273P) mutations
[11] = phase 2, ctDNA variant allele frequencies of 1%, 8 patients with EZH2 mutations
[12] = phase 2, ctDNA variant allele frequencies of 1%, 10 patients with STAT6 mutations

CCN(c1cc(-c2ccc(CN3CCOCC3)cc2)cc(C(=O)NCc2c(C)cc(C)[nH]c2=O)c1C)C1CCOCC1 [tazemetostat]
Neutropenia, All Treatment-Related, Grade ≥3 [1]: 1
Night sweats, All Events, All Grades [1]: 3
Night sweats, All Events, Grade ≥3 [1]: 0
Night sweats, All Treatment-Related, All Grades [1]: 3
Night sweats, All Treatment-Related, Grade ≥3 [1]: 0
Peripheral edema, All Events, All Grades [1]: 3
Peripheral edema, All Events, Grade ≥3 [1]: 0
Peripheral edema, All Treatment-Related, All Grades [1]: 2
Peripheral edema, All Treatment-Related, Grade ≥3 [1]: 0
Safety profile as monotherapy [1]: acceptable
Thrombocytopenia, All Events, All Grades [1]: 8
Thrombocytopenia, All Events, Grade ≥3 [1]: 2
Thrombocytopenia, All Treatment-Related, All Grades [1]: 7
Thrombocytopenia, All Treatment-Related, Grade ≥3 [1]: 1
Vomiting, All Events, All Grades [1]: 6
Vomiting, All Events, Grade ≥3 [1]: 0
Vomiting, All Treatment-Related, All Grades [1]: 5
Vomiting, All Treatment-Related, Grade ≥3 [1]: 0
clinical responses in phase 1 clinical trial ([2]; both EZH2 mutant and wild type patients): demonstrated clinical responses
clinical activity as a monotherapy ([2]; relapsed or refractory DLBCL (GCB and non-GCB), FL and MZL): demonstrates clinical activity
Response (relapsed refractory NHL; Sample ID 10012004, STAT6 419D > G, vaf 42%, DLBCL GCB EZH2 Wild-type): Progressive Disease
Response (relapsed refractory NHL; Sample ID 10032007, STAT6 419D > G, vaf 36%, FL EZH2 Wild-type): Partial Response
Response (relapsed refractory NHL; Sample ID 10042005, STAT6 419D > G, vaf 19%, FL EZH2 Wild-type): Partial Response
Response (relapsed refractory NHL; Sample ID 10052001, STAT6 419D > G, vaf 24%, FL EZH2 Mutant): Partial Response
Response (relapsed refractory NHL; Sample ID 10062002, STAT6 419D > G, vaf 29%, DLBCL GCB EZH2 Wild-type): Stable Disease
Response (relapsed refractory NHL; Sample ID 20012001, STAT6 286Q > R, vaf 24%, DLBCL GCB EZH2 Wild-type): Stable Disease
Response (relapsed refractory NHL; Sample ID 20012003, STAT6 417N > S, vaf 27%, DLBCL GCB EZH2 Wild-type): Stable Disease
Response (relapsed refractory NHL; Sample ID 20022001, STAT6 377E > K, vaf 33%, FL EZH2 Mutant): Partial Response
Response (relapsed refractory NHL; Sample ID 20022008, STAT6 371C > R, vaf 35%, FL EZH2 Wild-type): Progressive Disease
Response (relapsed refractory NHL; Sample ID 20042003, STAT6 419D > A, vaf 39%, DLBCL GCB EZH2 Mutant): Partial Response
Response (relapsed refractory NHL; Sample ID 20052004, STAT6 419D > A, vaf 30%, DLBCL GCB EZH2 Wild-type): Complete Response
Response (relapsed refractory NHL; Sample ID 30022001, STAT6 419D > H, vaf 42%, DLBCL GCB EZH2 Wild-type): Progressive Disease
Response (relapsed refractory NHL; Sample ID 50022001, STAT6 419D > Y, vaf 39%, DLBCL non-GCB): Stable Disease
response associated with MYC translocations (relapsed refractory NHL; phase 2, archive tumor, 2 MYC translocations): lack of response
best response CR, number of patients (relapsed refractory NHL; [3]): 3
best response PD, number of patients (relapsed refractory NHL; [3]): 1
best response PR, number of patients (relapsed refractory NHL; [3]): 1
best response PD, number of patients (relapsed refractory NHL; phase 2, archive tumor, 7 patients with MYC mutations): 5
best response PD, number of patients (relapsed refractory NHL; [4]): 2
best response PR, number of patients (relapsed refractory NHL; [4]): 4
best response SD, number of patients (relapsed refractory NHL; [4]): 3
best response CR, number of patients (relapsed refractory NHL; [5]): 1
best response PD, number of patients (relapsed refractory NHL; [5]): 3
best response PR, number of patients (relapsed refractory NHL; [5]): 5
best response SD, number of patients (relapsed refractory NHL; [5]): 4
response associated with MYC translocations (relapsed refractory NHL; phase 2, ctDNA variant allele frequencies of 0.1%, 5 MYC translocations): lack of response
best response CR, number of patients (relapsed refractory NHL; [6]): 2
best response PD, number of patients (relapsed refractory NHL; [6]): 2
best response PR, number of patients (relapsed refractory NHL; [6]): 1
best response SD, number of patients (relapsed refractory NHL; [6]): 1
best response PD, number of patients (relapsed refractory NHL; [7]): 3
best response PR, number of patients (relapsed refractory NHL; [7]): 5
best response SD, number of patients (relapsed refractory NHL; [7]): 2
best response PD, number of patients (relapsed refractory NHL; [8]): 3
best response PR, number of patients (relapsed refractory NHL; [8]): 5
best response SD, number of patients (relapsed refractory NHL; [8]): 6
best response PD, number of patients (relapsed refractory NHL; [9]): 9
best response PR, number of patients (relapsed refractory NHL; [9]): 2
best response SD, number of patients (relapsed refractory NHL; [9]): 3
response associated with MYC translocations (relapsed refractory NHL; phase 2, ctDNA variant allele frequencies of 1%, 5 MYC translocations): lack of response
best response PD, number of patients (relapsed refractory NHL; phase 2, ctDNA variant allele frequencies of 1%, 5 patients with MYC mutations): 3
best response CR, number of patients (relapsed refractory NHL; [10]): 2
best response PD, number of patients (relapsed refractory NHL; [10]): 2
best response PR, number of patients (relapsed refractory NHL; [10]): 1
best response PD, number of patients (relapsed refractory NHL; [11]): 3
best response PR, number of patients (relapsed refractory NHL; [11]): 4
best response SD, number of patients (relapsed refractory NHL; [11]): 1
best response PD, number of patients (relapsed refractory NHL; [12]): 2
best response PR, number of patients (relapsed refractory NHL; [12]): 4
best response SD, number of patients (relapsed refractory NHL; [12]): 4
oral bioavailability (Oral bioavailability): orally bioavailable
